Several values for one entry are separate records, joined by “and”; a condition that tells them apart may be missing. Equal values may be shown once.
Key:
Format in all cases: cell-based
A. niger ATCC # 16404 = test: Microtiter plate MIC / synergy test (Kull synergy index), mold, PDB medium; details: for Ca: MIC of BIOBAN1246 alone / Ca: MIC of TCMTB alone: component alone; for Ca: ppm AI of first component (A) alone (MIC, QA) / Cb: ppm AI of MBIT alone (MIC, QB): A. niger; for Cb: MIC of MBIT alone (QB): PDB medium, 25° C.
Source text: (§1) One measure of synergism is the industrially accepted method described by Kull, F. C.; Eisman, P. C.; Sylwestrowicz, H. D. and Mayer, R. L., in Applied Microbiology 9:538-541 (1961), using the ratio determined by the formula: Qa/QA+Qb/QB=Synergy Index (“SI”) wherein: • QA=concentration of compound A (first component) in ppm, acting alone, which produced an end point (MIC of Compound A). • Qa=concentration of compound A in ppm, in the mixture, which produced an end point. • QB=concentration of compound B (second component) in ppm, acting alone, which produced an end point (MIC of Compound B). • Qb=concentration of compound B in ppm, in the mixture, which produced an end point.
(§2) When the sum of Qa/QA and Qb/QB is greater than one, antagonism is indicated. […] The lower the SI, the greater the synergy shown by that particular mixture. The minimum inhibitory concentration (MIC) of a microbicide is the lowest concentration tested under a specific set of conditions that prevents the growth of added microorganisms.
(§3) Synergy tests were conducted using standard microtiter plate assays with media designed for optimal growth of the test microorganism. Minimal salt medium supplemented with 0.2% glucose and 0.1% yeast extract (M9GY medium) was used for testing bacteria; Potato Dextrose Broth (PDB medium) was used for testing yeast and mold. In this method, a wide range of combinations of microbicides was tested by conducting high resolution MIC assays in the presence of various concentrations of MBIT. High resolution MICs were determined by adding varying amounts of microbicide to one column of a microtitre plate and doing subsequent […] dilutions using an automated liquid handling system to obtain a series of endpoints ranging from 2 ppm to 10,000 ppm active ingredient.
(§4) The synergy of the combinations of the present invention was determined against several microorganisms, as described in the Tables below. The bacteria were used at a concentration of about 5×10^6 bacteria per mL and the yeast and mold at 5×10^5 fungi per mL. These microorganisms are representative of natural contaminants in many consumer and industrial applications. […] (yeast and mold) or 30° C. (bacteria).
(§5) In each test, Second Component (B) was MBIT and the First Component (A) was the other commercial microbicide.

C. albicans ATCC # 10231 = test: Microtiter plate MIC / synergy test (Kull synergy index), yeast, PDB medium; details: for Ca: MIC of BIOBAN1246 alone / Ca: MIC of TCMTB alone: component alone; for Ca: ppm AI of first component (A) alone (MIC, QA) / Cb: ppm AI of MBIT alone (MIC, QB): C. albicans; for Cb: MIC of MBIT alone (QB): PDB medium, 25° C.
Source text: as §1, §2, §3, §4, §5

[1] = system: Ps. aeruginosa ATCC # 9027; test: Microtiter plate MIC / synergy test (Kull synergy index), bacteria, M9GY medium; details: for Ca: ppm AI of first component (A) alone (MIC, QA) / Cb: ppm AI of MBIT alone (MIC, QB): Ps. aeruginosa; for Cb: MIC of MBIT alone (QB): M9GY medium, 30° C.
Procedure: as §2, §3
The bacteria were used at a concentration of about 5×10^6 bacteria per mL and the yeast and mold at 5×10^5 fungi per mL. These microorganisms are representative of natural contaminants in many consumer and industrial applications. […] (yeast and mold) or 30° C. (bacteria).
as §5

S. aureus ATCC # 6538 = test: as above; details: for Ca: ppm AI of first component (A) alone (MIC, QA) / Cb: ppm AI of MBIT alone (MIC, QB): S. aureus; for Cb: MIC of MBIT alone (QB): M9GY medium, 30° C.
Source text: as §1, §2, §3, §4, §5

[2] = A. niger ATCC # 16404, contact time 3 days
[3] = A. niger ATCC # 16404, contact time 7 days
[4] = C. albicans ATCC # 10231, contact time 48 hrs
[5] = C. albicans ATCC # 10231, contact time 72 hrs
[6] = Ps. aeruginosa ATCC # 9027, contact time 48 hrs, component alone
[7] = S. aureus ATCC # 6538, contact time 24 hrs, component alone

With `CCC12COCN1COC2` [BIOBAN1246] the “Ca: MIC of BIOBAN1246 alone” value (A. niger ATCC # 16404; [2]) was 650 ppm AI, the “Ca: MIC of BIOBAN1246 alone” value (A. niger ATCC # 16404; [3]) was 875 ppm AI and the “Ca: MIC of BIOBAN1246 alone” value (C. albicans ATCC # 10231; [4]) was 3000 ppm AI. The “Ca: MIC of BIOBAN1246 alone” value (C. albicans ATCC # 10231; [5]) was 4250 ppm AI, the “Ca: MIC of BIOBAN1246 alone” value ([1]; Ps. aeruginosa ATCC # 9027, contact time 24 hrs, component alone) was 100 ppm AI and the “Ca: MIC of BIOBAN1246 alone” value [1, 6] was 150 ppm AI. The “Ca: MIC of BIOBAN1246 alone” value (S. aureus ATCC # 6538; [7]) was 55 ppm AI and the “Ca: MIC of BIOBAN1246 alone” value (S. aureus ATCC # 6538; S. aureus ATCC # 6538, contact time 48 hrs, component alone) was 55 ppm AI.

For `CC1(C)COCN1` [BIOBAN 1135, 4,4-dimethyloxazolidine], the “Ca: ppm AI of first component (A) alone (MIC, QA)” value (“Ca: ppm AI of first component” below) (A. niger ATCC # 16404; contact time 3 days) was 525 ppm AI, the “Ca: ppm AI of first component” value (A. niger ATCC # 16404; contact time 7 days) was 875 ppm AI and the “Ca: ppm AI of first component” value (C. albicans ATCC # 10231; contact time 48 hrs) was 1100 ppm AI. The “Ca: ppm AI of first component” value (C. albicans ATCC # 10231; contact time 72 hrs) was 1100 ppm AI, the “Ca: ppm AI of first component” value ([1]; contact time 24 hrs) was 100 ppm AI and the “Ca: ppm AI of first component” value ([1]; contact time 48 hrs) was 100 ppm AI. The “Ca: ppm AI of first component” value (S. aureus ATCC # 6538; contact time 24 hrs) was 55 ppm AI and the “Ca: ppm AI of first component” value (S. aureus ATCC # 6538; contact time 48 hrs) was 55 ppm AI.

In the case of `N#CSCSc1nc2ccccc2s1` [TCMTB], the “Ca: MIC of TCMTB alone” value (A. niger ATCC # 16404; [2]) is reported as 3 ppm AI, the “Ca: MIC of TCMTB alone” value (A. niger ATCC # 16404; [3]) is reported as 8.75 ppm AI and the “Ca: MIC of TCMTB alone” value (C. albicans ATCC # 10231; [4]) is reported as 4.25 ppm AI. The “Ca: MIC of TCMTB alone” value (C. albicans ATCC # 10231; [5]) was 5.25 ppm AI, the “Ca: MIC of TCMTB alone” value [1, 6] was 212.5 ppm AI and the “Ca: MIC of TCMTB alone” value (S. aureus ATCC # 6538; [7]) was 26.25 ppm AI.

In the case of `Cn1sc2ccccc2c1=O` [MBIT, N-methyl-1,2-benzisothiazolin-3-one], the “Cb: MIC of MBIT alone (QB)” value (A. niger ATCC # 16404; [2]) is reported as 37.5 ppm AI and 75 ppm AI, the “Cb: MIC of MBIT alone” value (A. niger ATCC # 16404; A. niger ATCC # 16404, contact time 3 days, component alone (Table 8)) is reported as 75 ppm AI and the “Cb: MIC of MBIT alone” value (A. niger ATCC # 16404; A. niger ATCC # 16404, contact time 3 days, component alone (Table 9)) is reported as 37.5 ppm AI. For the same compound, the “Cb: MIC of MBIT alone” value (A. niger ATCC # 16404; A. niger ATCC # 16404, contact time 3 days, component alone (Table 10)) was 37.5 ppm AI, the “Cb: MIC of MBIT alone (QB)” value (A. niger ATCC # 16404; [3]) was 150 ppm AI and the “Cb: MIC of MBIT alone” value (A. niger ATCC # 16404; A. niger ATCC # 16404, contact time 7 days, component alone (Table 8)) was 150 ppm AI. The “Cb: MIC of MBIT alone” value (A. niger ATCC # 16404; A. niger ATCC # 16404, contact time 7 days, component alone (Table 9)) was 150 ppm AI, the “Cb: MIC of MBIT alone” value (A. niger ATCC # 16404; A. niger ATCC # 16404, contact time 7 days, component alone (Table 10)) was 150 ppm AI and the “Cb: ppm AI of MBIT alone (MIC, QB)” value (A. niger ATCC # 16404; contact time 3 days) was 37.5 ppm AI and 75 ppm AI. For the same compound, the “Cb: ppm AI of MBIT alone (MIC, QB)” value (A. niger ATCC # 16404; contact time 7 days) was 150 ppm AI, the “Cb: MIC of MBIT alone (QB)” value (C. albicans ATCC # 10231; [4]) was 30 ppm AI and the “Cb: MIC of MBIT alone” value (C. albicans ATCC # 10231; C. albicans ATCC # 10231, contact time 48 hrs, component alone (Table 8)) was 30 ppm AI. For the same compound, the “Cb: MIC of MBIT alone” value (C. albicans ATCC # 10231; C. albicans ATCC # 10231, contact time 48 hrs, component alone (Table 9)) was 30 ppm AI, the “Cb: MIC of MBIT alone” value (C. albicans ATCC # 10231; C. albicans ATCC # 10231, contact time 48 hrs, component alone (Table 10)) was 30 ppm AI and the “Cb: MIC of MBIT alone (QB)” value (C. albicans ATCC # 10231; [5]) was 60 ppm AI and 30 ppm AI. For the same compound, the “Cb: MIC of MBIT alone” value (C. albicans ATCC # 10231; C. albicans ATCC # 10231, contact time 72 hrs, component alone (Table 8)) was 30 ppm AI, the “Cb: MIC of MBIT alone” value (C. albicans ATCC # 10231; C. albicans ATCC # 10231, contact time 72 hrs, component alone (Table 9)) was 30 ppm AI and the “Cb: MIC of MBIT alone” value (C. albicans ATCC # 10231; C. albicans ATCC # 10231, contact time 72 hrs, component alone (Table 10)) was 60 ppm AI. The “Cb: ppm AI of MBIT alone (MIC, QB)” value (C. albicans ATCC # 10231; contact time 48 hrs) was 30 ppm AI, the “Cb: ppm AI of MBIT alone (MIC, QB)” value (C. albicans ATCC # 10231; contact time 72 hrs) was 30 ppm AI and the “Cb: MIC of MBIT alone (QB)” value ([1]; Ps. aeruginosa ATCC # 9027, contact time 24 hrs) was 75 ppm AI. For the same compound, the “Cb: MIC of MBIT alone” value ([1]; Ps. aeruginosa ATCC # 9027, contact time 24 hrs, component alone (Table 8)) was 75 ppm AI, the “Cb: MIC of MBIT alone” value ([1]; Ps. aeruginosa ATCC # 9027, contact time 24 hrs, component alone (Table 9)) was 75 ppm AI and the “Cb: MIC of MBIT alone (QB)” value ([1]; Ps. aeruginosa ATCC # 9027, contact time 48 hrs) was 125 ppm AI. For the same compound, the “Cb: MIC of MBIT alone” value ([1]; Ps. aeruginosa ATCC # 9027, contact time 48 hrs, component alone (Table 8)) was 125 ppm AI, the “Cb: MIC of MBIT alone” value ([1]; Ps. aeruginosa ATCC # 9027, contact time 48 hrs, component alone (Table 9)) was 125 ppm AI and the “Cb: MIC of MBIT alone” value ([1]; Ps. aeruginosa ATCC # 9027, contact time 48 hrs, component alone (Table 10)) was 125 ppm AI. The “Cb: ppm AI of MBIT alone (MIC, QB)” value ([1]; contact time 24 hrs) was 75 ppm AI, the “Cb: ppm AI of MBIT alone (MIC, QB)” value ([1]; contact time 48 hrs) was 125 ppm AI and the “Cb: MIC of MBIT alone (QB)” value (S. aureus ATCC # 6538; S. aureus ATCC # 6538, contact time 24 hrs) was 15 ppm AI and 30 ppm AI. The “Cb: MIC of MBIT alone” value (S. aureus ATCC # 6538; S. aureus ATCC # 6538, contact time 24 hrs, component alone (Table 8)) was 30 ppm AI, the “Cb: MIC of MBIT alone” value (S. aureus ATCC # 6538; S. aureus ATCC # 6538, contact time 24 hrs, component alone (Table 9)) was 30 ppm AI and the “Cb: MIC of MBIT alone” value (S. aureus ATCC # 6538; S. aureus ATCC # 6538, contact time 24 hrs, component alone (Table 10)) was 15 ppm AI. The “Cb: MIC of MBIT alone (QB)” value (S. aureus ATCC # 6538; S. aureus ATCC # 6538, contact time 48 hrs) was 30 ppm AI, the “Cb: MIC of MBIT alone” value (S. aureus ATCC # 6538; S. aureus ATCC # 6538, contact time 48 hrs, component alone (Table 8)) was 30 ppm AI and the “Cb: MIC of MBIT alone” value (S. aureus ATCC # 6538; S. aureus ATCC # 6538, contact time 48 hrs, component alone (Table 9)) was 30 ppm AI. The “Cb: ppm AI of MBIT alone (MIC, QB)” value (S. aureus ATCC # 6538; contact time 24 hrs) was 15 ppm AI and 30 ppm AI and the “Cb: ppm AI of MBIT alone (MIC, QB)” value (S. aureus ATCC # 6538; contact time 48 hrs) was 30 ppm AI.

Source: US8188127B2, “Microbicidal composition” (Rohm and Haas Company, priority 2007, dated 2012)
